# Laboratory results reported in paper PMC9241669, “Allantodapsone is a Pan-Inhibitor of Staphylococcus aureus Adhesion to Fibrinogen, Loricrin, and Cytokeratin 10” (Microbiology Spectrum, 2022).
# Several values for one entry are separate records, joined by “and”; a condition that tells them apart may be missing. Equal entries are not always repeated. Entries after “also recorded” stand apart in the source; their conditions may differ.
# Tests used:
# S. aureus Newman [1] = assay: Adhesion of S. aureus Newman to GST-L2v loricrin; assay type: cell-based, Staphylococcus aureus; conditions: for activity in adhesion of S. aureus Newman to L2v loricrin: screened at 80 μM (Fig. 4D)
# Protocol: FIG 4 Allantodapsone inhibits S. aureus adhesion to loricrin and cytokeratin 10. Dose-response curve for adhesion of S. aureus Newman to GST-L2v loricrin (A) and CK10 (C). (B) Inhibition of recombinant ClfB N2N3 binding to immobilized GST-L2v loricrin by allantodapsone. (D) Inhibition of S. aureus Newman adhesion to GST-L2v loricrin by allantodapsone derivatives. Purified GST-L2v or CK10 were used to coat plates at 4°C overnight. Wells were washed with PBS and blocked with 1% BSA. Washed bacteria (OD600 of 1) were mixed with allantodapsone or vehicle control before being added to the wells and incubated for 2 h at 37°C. Adherent cells were washed, fixed, and stained with crystal violet, and wells further washed. The dye was dissolved in acetic acid, and the absorbance measured at 570 nm. GST-L2v was used at 20 μM in A and D. CK10 was used at 10 nM. Test compounds were incubated with bacteria at 80 μM and normalized to the DMSO vehicle control in D. For data presented in B, recombinant ClfB was incubated with allantodapsone (100 μM) or DMSO (1%) for 30 min prior to being added to wells coated with recombinant GST-L2v loricrin. Bound ClfB was detected using peroxidase-conjugated anti-His monoclonal antibody in an ELISA. The graphs shown are representative of three independent experiments. Statistics were carried out using one-way ANOVA followed by the Dunnett’s posttest using GraphPad Prism version 9.0.
# (§1) Adhesion assays were carried out according to Hartford et al. ([37]). Briefly, plates were coated with 10 μg/mL fibrinogen (Calbiochem, Darmstadt, Germany) or 20 μg/mL fibronectin (Sigma-Aldrich, Ireland) for 2 h at 37°C or for 16 h at 4°C. Plates were blocked with 1% BSA at 37°C for 1 h and washed 3 times in PBS. Washed bacteria were incubated at 37°C for 2 h. Adherent bacteria were washed three times in PBS and fixed in 5–9% formaldehyde at room temperature for 30 min. Wells were washed three times in PBS and stained using 5% crystal violet for 20 min. Wells were washed three times in PBS, and the crystal violet solubilized using 5% acetic acid. Plates were read at 570 nm on a Wallac Victor2, (Shelton, CT, USA). The minimum adhesion inhibitory concentration (MAIC) was determined as the concentration inhibiting greater than 90% bacterial adhesion.
# S. aureus Newman [2] = assay: Adhesion of S. aureus Newman to immobilized fibrinogen (crystal violet); assay type: cell-based, Staphylococcus aureus; conditions: for inhibition of adhesion to fibrinogen: S. aureus Newman, stationary and exponential phase, compounds screened at 70 μM (Fig. 2); for activity of individual fragments of allantodapsone: assay not specified
# Protocol: FIG 1 Allantodapsone inhibits S. aureus Newman adhesion to fibrinogen. Dose response curves for S. aureus Newman (A), L. lactis ClfA (B), and L. lactis ClfB (C) adhesion to fibrinogen. Fibrinogen was used to coat plates at 4°C overnight at 10 μg/mL. Wells were washed with PBS and blocked with 1% BSA. Washed bacteria (OD600 of 1) were mixed with the relevant concentration of allantodapsone or vehicle control (DMSO) for 5 min, and added to the wells, incubating for 2 h at 37°C. Adherent cells were washed, fixed, and stained with crystal violet, and wells further washed. The dye was dissolved in acetic acid and the absorbance measured at 570 nm. IC50 values were generated using GraphPad Prism 9.0 GraphPad software, San Diego, CA. Data are representative of three experiments with error presented as SEM.
# (§2) FIG 2 Allantodapsone inhibits S. aureus adhesion to fibrinogen. (A) S. aureus Newman stationary phase and (B) exponential phase. (C) S. aureus SH1000 stationary phase and (D) exponential phase bacteria. Fibrinogen was used to coat plates at 4°C overnight at 10 μg/mL. Wells were washed with PBS and blocked with 1% BSA. Washed bacteria (OD600 of 1) were mixed with the relevant concentration of allantodapsone or vehicle control for 5 min, and added to the wells, incubating for 2 h at 37°C. Adherent cells were washed, fixed, and stained with crystal violet, and wells further washed. The dye was dissolved in acetic acid and the absorbance measured at 570 nm. Compounds were screened at a concentration of 70 μM and compared to their vehicle control. Statistical analysis was carried out using repeated measures ANOVA followed by multiple comparisons Dunnett’s tests using GraphPad PRISM. **, P ≤ 0.01; ***, P ≤ 0.001; ****, P ≤ 0.0001 (n = 3).
# as §1
# (§3) Compounds were added to the bacterial suspension prior to addition to the wells. In each experiment, vehicle controls were prepared using the same volume of vehicle for the matching test compound.
# S. aureus SH1000 = assay: Adhesion of S. aureus SH1000 to immobilized fibrinogen (crystal violet); assay type: cell-based, Staphylococcus aureus; conditions: S. aureus SH1000, stationary and exponential phase; compounds screened at 70 μM (Fig. 2)
# Protocol: as §2, §1, §3
# MSSA isolates = conditions: cited from earlier work
# S. aureus Newman [3] = assay: Antimicrobial assay (bacterial growth in BHI broth); assay type: cell-based, Staphylococcus aureus; conditions: for MIC90: Staphylococcus aureus, S. aureus Newman, overnight growth in BHI broth; for inhibition of bacterial growth (words): overnight in BHI broth, allantodapsone up to 100 μM, versus vehicle control
# Protocol: S. aureus was grown in BHI broth shaking overnight at 37°C in the presence of a range of concentrations of allantodapsone, dapsone, or ampicillin as control. Absorbance was measured the following day at 570 nm. Data have been normalized to the relevant vehicle control (1% DMSO for allantodapsone and dapsone and water for ampicillin). […] Error bars represent SEM.
# S. aureus was grown overnight in BHI broth at 37°C in shaking incubator. Wells were inoculated with 10 μL of overnight culture into 90 μL of broth containing the test compounds or controls. A growth control containing no agents was used (positive control), a sterility control of broth alone was included, and vehicle controls were included for each test compound. Plates were incubated overnight at 37°C and absorbance measured at 570 nm the following day using a Wallac Victor2, (Shelton, CT, USA).
SMILES,activity in adhesion of S. aureus Newman to L2v loricrin (S. aureus Newman [1]),inhibition of adhesion to fibrinogen (S. aureus Newman [2]),activity of individual fragments of allantodapsone (S. aureus Newman [2]),inhibition of adhesion to fibrinogen (S. aureus SH1000),MIC90 (S. aureus Newman [3]),inhibition of bacterial growth (words) (S. aureus Newman [3]),further results
N=C(N)Nc1ccc(Oc2cccc(NC(=N)N)c2)cc1 [Compound 10],loss of activity,–,–,–,–,–,–
N=C(N)Nc1ccc(Oc2cccc(NC(=O)c3ccc(Cl)c(C(F)(F)F)c3)c2)cc1 [Compound 11],demonstrated activity; also recorded: maintained some activity,–,–,–,–,–,"adhesion to L2v loricrin, normalized to DMSO vehicle control (S. aureus Newman [1]; test compound at 80 μM, S. aureus Newman): 61.3% ± 7"
O=C1NC(=O)C(=O)C(=O)N1 [alloxan],–,Neither dapsone nor alloxan had any inhibitory activity; also recorded: did not have any inhibitory effect,did not show any activity,Neither dapsone nor alloxan had any inhibitory activity,–,–,–
CC1(C)S[C@@H]2[C@H](NC(=O)[C@H](N)c3ccccc3)C(=O)N2[C@H]1C(=O)O [ampicillin],–,–,–,–,0.03 µM and 0.01 µg/mL,pronounced inhibitory effect on growth,MIC90 reported for S. aureus isolates (MSSA isolates; microdilution method in MSSA isolates): 0.015 to 4 µg/mL
Nc1ccc(S(=O)(=O)c2ccc(N)cc2)cc1 [dapsone],–,Neither dapsone nor alloxan had any inhibitory activity; also recorded: did not have any inhibitory effect,did not show any activity,Neither dapsone nor alloxan had any inhibitory activity,0.3 µM and 0.1 µg/mL,inhibited growth,MIC90 previously determined in MSSA strains (MSSA isolates; MSSA strains): 128 µg/mL; range printed in parentheses after MIC90 in MSSA strains (MSSA isolates; MSSA strains): 32 to 256 µg/mL
O=C1NC(=O)C(=NO)C(=O)N1 [violuric acid],–,–,did not show any activity,–,–,–,–
